# Reference: EP0252525B1, “Alpha-amylase assay using modified oligosaccharide and process for producing said modified oligosaccharide” (WAKO PURE CHEMICAL INDUSTRIES, LTD, priority 1986, dated 1988)
# What was measured:
# Type in all cases: biochemical
# [1] = molecular target: T1, human pancreatic α-amylase (HPA) (Homo sapiens, UniProt P04746); assay: Hydrolysis rate of substrates by α-amylase (relative to G5P); conditions: substrate 1.0 mM, pH 7, value of G5P taken as 1
# T1 sequence (P04746 16-511): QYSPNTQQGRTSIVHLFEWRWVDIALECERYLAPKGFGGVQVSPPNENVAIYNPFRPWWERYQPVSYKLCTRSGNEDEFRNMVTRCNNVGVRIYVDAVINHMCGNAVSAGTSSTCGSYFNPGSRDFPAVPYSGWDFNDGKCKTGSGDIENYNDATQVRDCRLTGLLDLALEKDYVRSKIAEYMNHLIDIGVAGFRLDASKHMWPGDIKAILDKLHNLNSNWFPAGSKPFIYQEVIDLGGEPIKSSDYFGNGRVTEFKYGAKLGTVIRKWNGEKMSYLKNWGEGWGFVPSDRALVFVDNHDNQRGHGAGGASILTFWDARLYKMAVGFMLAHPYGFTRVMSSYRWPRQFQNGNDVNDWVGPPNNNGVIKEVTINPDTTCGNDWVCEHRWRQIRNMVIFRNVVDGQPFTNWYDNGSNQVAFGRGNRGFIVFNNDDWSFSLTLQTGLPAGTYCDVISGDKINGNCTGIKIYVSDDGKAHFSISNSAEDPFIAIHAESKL
# Procedure: (§1) The above-mentioned advantages can be shown by using the following oligosaccharides: [drawing 6] n = 2: BG4P n = 3: BG5P (the present invention) n = 4: BG6P n = 5: BG7P [drawing 7] n = 2: G4P n = 3: G5P (standard) n = 4: G6P n = 5: G7P [drawing 8] n = 2: BDG4P n = 3: BDG5P n = 4: BDG6P n = 5: BDG7P The hydrolysis rate is measured by using human pancreatic α-amylase (HPA) or human salivary α-amylase (HSA) for each substrate (1.0 mM) at pH 7, and evaluating by means of relative values by taking the value of G5P as 1.
# [2] = molecular target: T2, human salivary α-amylase (HSA) (Homo sapiens, UniProt P0DUB6); assay: as above; conditions: substrate 1.0 mM, pH 7, value of G5P taken as 1
# T2 sequence (P0DUB6 16-511): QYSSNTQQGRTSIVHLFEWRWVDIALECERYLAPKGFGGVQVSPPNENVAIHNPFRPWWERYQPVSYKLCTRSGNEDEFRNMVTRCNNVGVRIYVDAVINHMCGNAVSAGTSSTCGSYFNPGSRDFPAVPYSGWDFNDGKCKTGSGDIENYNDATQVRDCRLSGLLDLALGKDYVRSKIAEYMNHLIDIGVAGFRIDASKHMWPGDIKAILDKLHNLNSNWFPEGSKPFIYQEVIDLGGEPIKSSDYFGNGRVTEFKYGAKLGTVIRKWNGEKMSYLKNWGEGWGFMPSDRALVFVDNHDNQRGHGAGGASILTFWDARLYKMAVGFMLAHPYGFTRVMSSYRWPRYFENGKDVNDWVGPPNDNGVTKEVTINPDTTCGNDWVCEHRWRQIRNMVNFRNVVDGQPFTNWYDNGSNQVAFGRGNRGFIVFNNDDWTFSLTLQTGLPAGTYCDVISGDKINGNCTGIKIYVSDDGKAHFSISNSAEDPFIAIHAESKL
# Procedure: as §1
# [3] = molecular target: T3, HPA (Homo sapiens, UniProt P04746); assay: Binding mode (distribution of hydrolysis products) by HPLC; conditions: for Hydrolysis product G2P: share of product G2P; for Hydrolysis product G3P: share of product G3P; for Hydrolysis product G4P: share of product G4P; for Hydrolysis product GP: share of product GP
# T3 sequence (P04746 16-511): T1 sequence (P04746 16-511)
# Procedure: (§2) The binding mode of each substrate were measured with high-performance liquid chromatography (HPLC) as described above.
# [4] = molecular target: T4, HSA (Homo sapiens, UniProt P0DUB6); assay: as above; conditions: for Hydrolysis product G2P: share of product G2P; for Hydrolysis product G3P: share of product G3P; for Hydrolysis product G4P: share of product G4P; for Hydrolysis product GP: share of product GP
# T4 sequence (P0DUB6 16-511): T2 sequence (P0DUB6 16-511)
# Procedure: as §2
Structure (SMILES),hydrolysis rate (relative value) [1],hydrolysis rate (relative value) [2],Hydrolysis product G2P [3] [%],Hydrolysis product G3P [3] [%],Hydrolysis product G4P [3] [%],Hydrolysis product GP [3] [%],Hydrolysis product G2P [4] [%],Hydrolysis product G3P [4] [%],Hydrolysis product G4P [4] [%],Hydrolysis product GP [4] [%],Hydrolysis product (result in words) [3],Hydrolysis product (result in words) [4]
O=[N+]([O-])c1ccc(O[C@H]2O[C@H](CO)[C@@H](O[C@H]3O[C@H](CO)[C@@H](O[C@H]4O[C@H](CO)[C@@H](O[C@H]5O[C@H](CO)[C@@H](O)[C@H](O)[C@H]5O)[C@H](O)[C@H]4O)[C@H](O)[C@H]3O)[C@H](O)[C@H]2O)cc1 [Substrate G4P],0.70,0.75,55,0,0,45,74,0,0,26,,
O=[N+]([O-])c1ccc(O[C@H]2O[C@H](CO)[C@@H](O[C@H]3O[C@H](CO)[C@@H](O[C@H]4O[C@H](CO)[C@@H](O[C@H]5O[C@H](CO)[C@@H](O[C@H]6O[C@H](CO)[C@@H](O[C@H]7O[C@H](CO)[C@@H](O)[C@H](O)[C@H]7O)[C@H](O)[C@H]6O)[C@H](O)[C@H]5O)[C@H](O)[C@H]4O)[C@H](O)[C@H]3O)[C@H](O)[C@H]2O)cc1 [Substrate G6P],1.7,1.7,22,76,0,2,40,53,0,7,,
O=[N+]([O-])c1ccc(O[C@H]2O[C@H](CO)[C@@H](O[C@H]3O[C@H](CO)[C@@H](O[C@H]4O[C@H](CO)[C@@H](O[C@H]5O[C@H](CO)[C@@H](O[C@H]6O[C@H](CO)[C@@H](O[C@H]7O[C@@H]8COC(c9ccccc9)O[C@H]8[C@H](O)[C@H]7O)[C@H](O)[C@H]6O)[C@H](O)[C@H]5O)[C@H](O)[C@H]4O)[C@H](O)[C@H]3O)[C@H](O)[C@H]2O)cc1 (stereo partly drawn) [BDG6P],0.4,0.5,73,12,0,15,66,10,0,24,,
O=[N+]([O-])c1ccc(O[C@H]2O[C@H](CO)[C@@H](O[C@H]3O[C@H](CO)[C@@H](O[C@H]4O[C@H](CO)[C@@H](O[C@H]5O[C@H](CO)[C@@H](O[C@H]6O[C@@H]7COC(c8ccccc8)O[C@H]7[C@H](O)[C@H]6O)[C@H](O)[C@H]5O)[C@H](O)[C@H]4O)[C@H](O)[C@H]3O)[C@H](O)[C@H]2O)cc1 (stereo partly drawn) [BDG5P],0,0,,,,,,,,,Not hydrolyzed,Not hydrolyzed
O=[N+]([O-])c1ccc(O[C@H]2O[C@H](CO)[C@@H](O[C@H]3O[C@H](CO)[C@@H](O[C@H]4O[C@H](CO)[C@@H](O[C@H]5O[C@H](CO)[C@@H](O[C@H]6O[C@H](CO)[C@@H](O[C@H]7O[C@H](CO)[C@@H](O[C@H]8O[C@H](COCc9ccccc9)[C@@H](O)[C@H](O)[C@H]8O)[C@H](O)[C@H]7O)[C@H](O)[C@H]6O)[C@H](O)[C@H]5O)[C@H](O)[C@H]4O)[C@H](O)[C@H]3O)[C@H](O)[C@H]2O)cc1 [BG7P],1.5,1.5,20,38,40,2,15,38,45,2,,
O=[N+]([O-])c1ccc(O[C@H]2O[C@H](CO)[C@@H](O[C@H]3O[C@H](CO)[C@@H](O[C@H]4O[C@H](CO)[C@@H](O[C@H]5O[C@H](COCc6ccccc6)[C@@H](O)[C@H](O)[C@H]5O)[C@H](O)[C@H]4O)[C@H](O)[C@H]3O)[C@H](O)[C@H]2O)cc1 [BG4P],0.55,0.60,8,0,0,92,10,0,0,90,,
O=[N+]([O-])c1ccc(O[C@H]2O[C@H](CO)[C@@H](O[C@H]3O[C@H](CO)[C@@H](O[C@H]4O[C@H](CO)[C@@H](O[C@H]5O[C@H](CO)[C@@H](O[C@H]6O[C@H](CO)[C@@H](O[C@H]7O[C@H](COCc8ccccc8)[C@@H](O)[C@H](O)[C@H]7O)[C@H](O)[C@H]6O)[C@H](O)[C@H]5O)[C@H](O)[C@H]4O)[C@H](O)[C@H]3O)[C@H](O)[C@H]2O)cc1 [BG6P],1.4,1.4,23,73,0,4,29,68,0,3,,
O=[N+]([O-])c1ccc(O[C@H]2O[C@H](CO)[C@@H](O[C@H]3O[C@H](CO)[C@@H](O[C@H]4O[C@H](CO)[C@@H](O[C@H]5O[C@@H]6COC(c7ccccc7)O[C@H]6[C@H](O)[C@H]5O)[C@H](O)[C@H]4O)[C@H](O)[C@H]3O)[C@H](O)[C@H]2O)cc1 (stereo partly drawn) [BDG4P],0,0,,,,,,,,,Not hydrolyzed,Not hydrolyzed
O=[N+]([O-])c1ccc(O[C@H]2O[C@H](CO)[C@@H](O[C@H]3O[C@H](CO)[C@@H](O[C@H]4O[C@H](CO)[C@@H](O[C@H]5O[C@H](CO)[C@@H](O[C@H]6O[C@H](CO)[C@@H](O[C@H]7O[C@H](CO)[C@@H](O[C@H]8O[C@H](CO)[C@@H](O)[C@H](O)[C@H]8O)[C@H](O)[C@H]7O)[C@H](O)[C@H]6O)[C@H](O)[C@H]5O)[C@H](O)[C@H]4O)[C@H](O)[C@H]3O)[C@H](O)[C@H]2O)cc1 [Substrate G7P],1.8,1.8,14,30,55,1,8,30,60,2,,
